From patent publication US4226610A, “Herbicidal compounds, preparation thereof and herbicides containing the same” (Meiji Selka Kaisha, Ltd., priority 1978, dated 1980)

How the values were obtained:
manna grass = assay: Experiment 1 foliar application to naturally growing weeds; type: in vivo, Digitaria adsceudes Henr.; settings: 2 months
Procedure, shortened: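 Dilute compounds to prescribed concentrations; add 0.1% octylphenyl polyoxyethanol; spray foliage of in-situ weeds at 150 liter per 10 are. Score killing 0–5 on day 21. Score reproduction (-) to (+++) at month 2 (cockspar grass) or month 4 (chigaya, azumanezasa, warunasubi).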

lace shrub = assay: Experiment 3 foliar application to naturally growing shrubs; type: in vivo, Stephanandra incisa Zabel
Procedure, shortened: (§1)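 Naturally growing shrubs were sprayed on the foliage at 150 liter per 10 are. Plant kill was then scored from 0 to 5 at 1 and 3 months, and reproduction was graded − to +++ at 3 months.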

yabugarashi = assay: Experiment 1 foliar application to naturally growing weeds; type: in vivo, Cayratia japonica Houtt.; settings: 4 months
Procedure, shortened: (§2)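 Naturally growing weeds receive a foliar spray of compound at prescribed concentrations, 150 liter per 10 are, containing 0.1% octylphenyl polyoxyethanol. Kill is rated 0 (no effect) to 5 (death) after 21 days. Regrowth is rated (-) to (+++) after 4 months, or 2 months for cockspar grass.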

stonewort = assay: Experiment 7 application to water; type: in vivo, Chara Braunii Gmel.; parameters: scale not given here
Excerpt: (§3) A black soil was packed in 50 cm. square concrete pots and water was poured there-onto at 50 cm. in depth. Hornwort (Ceratophyllum demersum L.), stonewort (Chara Braunii Gmel.) and salvinia (Salvinia natans All.) were transplanted and pond scum (Spirogira crassa Kutz) and diatoms (Bacillariophyta) were floated in the water.
(§4) Then, the compounds of the invention were applied dropwise onto the surface of the water so that the prescribed concentrations in the water are obtained as indicated in Table 9.

torch azalea = assay: Experiment 3 foliar application to naturally growing shrubs; type: in vivo, Rhododendoron Kaempferi Planch.; settings: after 3 months
Procedure, shortened: as §1

Japanese bush cranberry = assay: as above; type: in vivo, Viburnum dilatatum Thunb.; settings: after 3 months
Procedure, shortened: as §1

warunasubi = assay: Experiment 1 foliar application to naturally growing weeds; type: in vivo, Solanum carolinensis L.; settings: 4 months
Procedure, shortened: as §2

purple nutsedge = assay: as above; type: in vivo, Cyperus rotundus L.; settings: 4 months
Procedure, shortened: as §2

white clover = assay: as above; type: in vivo, Trifolium repens L.; settings: 4 months
Procedure, shortened: as §2

kiichigo = assay: Experiment 3 foliar application to naturally growing shrubs; type: in vivo, Rubus palmatsu Thunb. forma coptophyllus Makino; settings: for Reproduction-inhibiting: after 3 months
Procedure, shortened: as §1

Japanese prickly ash = assay: as above; type: in vivo, Xanthoxylum piperitum DC.
Procedure, shortened: as §1

salvinia = assay: Experiment 7 application to water; type: in vivo, Salvinia natans Allioni; parameters: scale not given here
Excerpt: as §3, §4

pond scum = assay: Experiment 7 application to water; type: in vivo, Spirogira crassa Kutz.; parameters: scale not given here
Excerpt: as §3, §4

chigaya = assay: Experiment 1 foliar application to naturally growing weeds; type: in vivo, Imperata cylindrica Beauv.; settings: 4 months
Procedure, shortened: as §2

omodaka = assay: Experiment 6 spray on aquatic plants in concrete pots; type: in vivo, Sagittaria trifolia L.; settings: for Reproduction-inhibiting effect: 3 months
Excerpt: The detail of the assessment made in the following Experiments of the invention was as follows:
Four months after treatment, evaluation was made for inhibition of reproduction expressed in terms of symbols ranging from (-) to (+++) where (-) means no reproduction, namely complete suppression of reproduction, (±) remarkable suppression of reproduction; (+) considerable suppression of reproduction; (++) medium supprestion of reproduction; and (+++) no suppression of reproduction.
A paddy field soil was packed in 50 cm. square concrete pots. omodaka (Sagittaria trifolia L.), urikawa (Sagittaria pygmaea Miq.), prog-bit (Hydrocharis dubia) and aginashi (Sagittaria Aginashi Makino) were transplanted; then water was poured onto the soil at 5 cm. depth.
Further, water hyacinth, greater-duckweed (Spirodela polyrhiza Schleid.) and duckweed (Lemna paucicostata Hegelm) were floated on the water.
After one month, the compounds of the invention diluted to the prescribed concentrations as indicated in Table 8 were sprayed in an amount of 100 liter per 10 are. As a surfactant, 0.1% of octylphenyl polyoxyethanol was added thereto.
The killing index (0, no effect; 5, death) after 21 days and 3 months and the reproduction-inhibiting effect (-, no reproduction; +++, maximum reproduction) after 3 months were determined.

eulalia = assay: Experiment 2 foliar application in Japanese cypress afforested land; type: in vivo, Miscanthus sinensis Andress.; parameters: key: 0 = no effect, 5 = death; settings: 0.063%; after 3 months
Procedure, shortened: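 Field foliar spray on shrubs in Japanese cypress afforested land at 150 liter per 10 are, with compounds at prescribed concentrations. Killing index scored from 0 (no effect) to 5 (death) at 30 days and 3 months. Plant heights ranged from about 50 to 100 cm.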

hornwort = assay: Experiment 7 application to water; type: in vivo, Ceratophyllum demersum L.; parameters: scale not given here
Excerpt: as §3, §4

With `CP(=O)(O)CC[C@H](N)C(=O)O` [L-AMPB choline, L-2-Amino-4-methylphosphino-butanoic acid choline] the Reproduction-inhibiting effect (manna grass; 0.05%) was “±”, the Reproduction-inhibiting effect (manna grass; 0.1%) was “-” and the Reproduction-inhibiting effect (manna grass; 0.2%) was “-”. For the same compound, the Killing index (lace shrub; 0.05%, after 3 months) was 4.5, the Reproduction-inhibiting (lace shrub; 0.05%, after 3 months) was “±” and the Killing index (lace shrub; 0.05%, after 30 days) was 4.5. The Reproduction-inhibiting (lace shrub; 0.1%, after 3 months) was “-”, the Reproduction-inhibiting (lace shrub; 0.2%, after 3 months) was “-” and the Reproduction-inhibiting effect (yabugarashi; 0.05%) was “±”. For the same compound, the Reproduction-inhibiting effect (yabugarashi; 0.1%) was “-”, the Reproduction-inhibiting effect (yabugarashi; 0.2%) was “-” and the controlling effect (stonewort; 1 ppm, 3 months) was 5. The controlling effect (stonewort; 1 ppm, 21 days) was 4, the controlling effect (stonewort; 3 ppm, 3 months) was 5 and the controlling effect (stonewort; 3 ppm, 21 days) was 5. For the same compound, the controlling effect (stonewort; 10 ppm, 3 months) was 5, the controlling effect (stonewort; 10 ppm, 21 days) was 5 and the Reproduction-inhibiting (torch azalea; 0.05%) was “-”. For the same compound, the Reproduction-inhibiting (torch azalea; 0.1%) was “-”, the Reproduction-inhibiting (torch azalea; 0.2%) was “-” and the Reproduction-inhibiting (Japanese bush cranberry; 0.05%) was “+”. For the same compound, the Reproduction-inhibiting (Japanese bush cranberry; 0.1%) was “-”, the Reproduction-inhibiting (Japanese bush cranberry; 0.2%) was “-” and the Reproduction-inhibiting effect (warunasubi; 0.05%) was “±”. For the same compound, the Reproduction-inhibiting effect (warunasubi; 0.1%) was “-”, the Reproduction-inhibiting effect (warunasubi; 0.2%) was “-” and the Reproduction-inhibiting effect (purple nutsedge; 0.05%) was “+”. For the same compound, the Reproduction-inhibiting effect (purple nutsedge; 0.1%) was “±”, the Reproduction-inhibiting effect (purple nutsedge; 0.2%) was “-” and the Reproduction-inhibiting effect (white clover; 0.05%) was “±”. For the same compound, the Reproduction-inhibiting effect (white clover; 0.1%) was “-”, the Reproduction-inhibiting effect (white clover; 0.2%) was “-” and the Reproduction-inhibiting (kiichigo; 0.05%) was “-”. The Killing index (kiichigo; 0.05%, after 30 days) was 4.5, the Reproduction-inhibiting (kiichigo; 0.1%) was “-” and the Reproduction-inhibiting (kiichigo; 0.2%) was “-”. The Killing index (Japanese prickly ash; 0.05%, after 3 months) was 4.5, the Reproduction-inhibiting (Japanese prickly ash; 0.05%, after 3 months) was “±” and the Killing index (Japanese prickly ash; 0.05%, after 30 days) was 4.5. For the same compound, the Reproduction-inhibiting (Japanese prickly ash; 0.1%, after 3 months) was “-”, the Reproduction-inhibiting (Japanese prickly ash; 0.2%, after 3 months) was “-” and the controlling effect (salvinia; 1 ppm, 3 months) was 5. The controlling effect (salvinia; 1 ppm, 21 days) was 4, the controlling effect (salvinia; 3 ppm, 3 months) was 5 and the controlling effect (salvinia; 3 ppm, 21 days) was 5. The controlling effect (salvinia; 10 ppm, 3 months) was 5, the controlling effect (salvinia; 10 ppm, 21 days) was 5 and the controlling effect (pond scum; 1 ppm, 3 months) was 4. The controlling effect (pond scum; 1 ppm, 21 days) was 4, the controlling effect (pond scum; 3 ppm, 3 months) was 5 and the controlling effect (pond scum; 3 ppm, 21 days) was 5. The controlling effect (pond scum; 10 ppm, 3 months) was 5, the controlling effect (pond scum; 10 ppm, 21 days) was 5 and the Reproduction-inhibiting effect (chigaya; 0.05%) was “-”. The Reproduction-inhibiting effect (chigaya; 0.1%) was “-”, the Reproduction-inhibiting effect (chigaya; 0.2%) was “-” and the Reproduction-inhibiting effect (omodaka; 0.05%) was “+”. The Reproduction-inhibiting effect (omodaka; 0.1%) was “-”, the Killing index (omodaka; 0.1%, 21 days) was 4.5 and the Reproduction-inhibiting effect (omodaka; 0.2%) was “-”. It also gave a Killing index (eulalia) of 3.5, a controlling effect (hornwort; 1 ppm, 3 months) of 2 and a controlling effect (hornwort; 1 ppm, 21 days) of 3. It also gave a controlling effect (hornwort; 3 ppm, 3 months) of 5, a controlling effect (hornwort; 3 ppm, 21 days) of 5 and a controlling effect (hornwort; 10 ppm, 3 months) of 5. It also gave a controlling effect (hornwort; 10 ppm, 21 days) of 5.
